The term IC50 denotes the concentration at which inhibition is half-maximal. A high value points to a need for much substance.

Substance-P receptor, sequence (P25103 whole entry): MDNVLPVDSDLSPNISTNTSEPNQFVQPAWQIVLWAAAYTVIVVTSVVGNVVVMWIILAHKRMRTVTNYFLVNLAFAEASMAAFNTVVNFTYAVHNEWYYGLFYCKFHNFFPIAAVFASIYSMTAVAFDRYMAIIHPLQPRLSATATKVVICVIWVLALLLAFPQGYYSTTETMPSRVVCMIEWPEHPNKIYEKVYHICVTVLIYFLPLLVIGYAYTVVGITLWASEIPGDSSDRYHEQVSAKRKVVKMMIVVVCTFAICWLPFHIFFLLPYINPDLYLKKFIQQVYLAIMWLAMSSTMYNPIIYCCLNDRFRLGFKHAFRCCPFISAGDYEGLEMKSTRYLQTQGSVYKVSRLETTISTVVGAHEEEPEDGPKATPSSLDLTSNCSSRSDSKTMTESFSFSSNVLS

This assay addresses Substance-P receptor (Homo sapiens, UniProt P25103). As to the kind of experiment: Tested for the inhibitory potency against Neurokinin 1 NK1 receptor.
`Cc1cc(C)cc(C(=O)N2C3CC(NCc4ccnc5ccccc45)CC2C(c2ccccc2)C3)c1` (racemic; form 2) had an IC50 of 640 nM.

The compound `Cc1cc(C)cc(C(=O)N2C3C=C(c4ccccc4)C2CC(NCc2ccnc4ccccc24)C3)c1` (racemic) yielded a concentration for half-maximal inhibition (IC50) of 1000 nM. For the compound `Cc1cc(C)cc(C(=O)N2C3CC(NCc4ccnc5ccccc45)CC2C(c2ccccc2)C3)c1` (racemic; form 1), the midpoint of inhibition, the IC50, lay at 44 nM.

The record behind these values is ChEMBL document CHEMBL1150466, “Studies on the active conformation of NK1 antagonist CGP 49823. Part 1. Synthesis of conformationally restricted analogs” (Bioorg Med Chem Lett, 1997).
